Read-outs that look alike come from different tables or passages of the source. Marks after values point to notes of the source that are not given here.
Legend:
[1] = Single dose pharmacokinetic study in Sprague-Dawley rats; assay type: in vivo; conditions: male, rat
Procedure: Six- to eight-week old male Sprague-Dawley rats were administered a single bolus dose (5 mg/kg of docetaxel) of docetaxel encapsulated in nanoparticles or conventional docetaxel via a tail vein. The dose groups consisted of six rats each. Blood was drawn at 0.083, 0.5, 1, 2, 3, 4, 6, and 24 hours post-dosing and processed to plasma. The concentration of total docetaxel in plasma was measured by a liquid chromatography-mass spectrometry (LC-MS) method following extraction with methyl tert-butyl ether (MTBE).

[2] = Tumor docetaxel concentration after a single dose in human tumor xenograft model (LNCaP); assay type: in vivo, SCID mice; conditions: male, SCID, mouse
Procedure: Male severe combined immunodeficiency (SCID) mice were subcutaneously inoculated with human LNCaP prostate cancer cells. Three to four weeks after inoculation, the mice were assigned to different treatment groups such that the average tumor volume in each group was 300 mm^3. At this time, a single intravenous (IV) dose of 50 mg/kg docetaxel was administered as either docetaxel encapsulated in nanoparticles or conventional docetaxel. The test subjects were sacrificed 2 hour or 12 hour post-dose. The tumors from each group were excised and assayed for docetaxel using liquid chromatography-mass spectrometry (LC-MS).

[3] = test system: human LNCaP prostate cancer cells; experiment: Anti-tumor activity after repeated doses in human tumor xenograft model (LNCaP); assay type: in vivo, SCID mice; conditions: Q2D for four doses, eight day holiday, another four doses; FIG. 7
Procedure: Male severe combined immunodeficiency (SCID) mice were subcutaneously inoculated with human LNCaP prostate cancer cells. Three to four weeks after inoculation, the mice were assigned to different treatment groups such that the average tumor volume in each group was 250 mm^3. Subsequently, the mice were treated every other day (Q2D) for four doses, with an eight day holiday, followed by another four doses at the Q2D schedule.

[4] = Acute dose range finding study in Sprague-Dawley rats; assay type: in vivo; conditions: 7 days
Procedure: Sixty Sprague-Dawley rats (30/sex) were assigned to 10 dose groups (3 rats/sex/group) and were administered a single dose of either docetaxel encapsulated in nanoparticles (5.7, 7.5, 10, 15 or 30 mg/kg body weight) or conventional docetaxel (5.7, 7.5, 10, 15 or 30 mg/kg body weight).

MX-1 breast tumors = experiment: Tumor accumulation of docetaxel nanoparticles in MX-1 breast tumors; assay type: in vivo, mice; conditions: 10 mg/kg, 24 hours after injection, LC/MS/MS
Procedure: Mice were then injected with 10 mg/kg of the test article, then euthanized 24 hours later and the tumors were removed and analyzed for docetaxel content using LC/MS/MS. Results are depicted in FIG. 12.

[5] = Pharmacokinetics of docetaxel nanoparticles in primates; assay type: in vivo, non human primates; design: Cmax/D / AUC/D: unit not given beside the values; conditions: for AUC / Cl / Vz / half-life / Cmax: 30 minute IV infusion; for half-life: in vivo
Procedure: 1 male and 1 female were used per dose group. The dosing day was 1 day and the formulations were administered by 30 minute IV infusion at 25 mg/m^2 docetaxel or 50 mg/m^2 docetaxel (animals were randomized and then dosed with 50 mg/m2 on day 29 and PK, hematology and clinical chemistry were measured for 21 days). At the end of the study, PK, hematology and clinical chemistry collected over a 21 day period were assessed. FIG. 12 depicts the results of male (M) and female (F) PNP.

[6] = 5 mg/kg, cited from earlier work
[7] = Tissue distribution of radioactivity in rats after IV administration; assay type: in vivo, Sprague-Dawley rats
Procedure: Six- to eight-week old male Sprague-Dawley rats were administered a single bolus intravenous dose of one of the following: (1) docetaxel encapsulated in nanoparticles in which the ligand of the PLA-PEG-lys(urea)glu targeting polymer was ^14C-labeled, (2) docetaxel encapsulated in nanoparticles in which the encapsulated docetaxel was ^14C-labeled, (3) ^14C-labeled conventional docetaxel.
Blood was drawn at 1, 3, 6, 12, and 24 hours post-dosing and processed to plasma. Immediately following blood collection, the rats were euthanized by CO2 asphyxiation and tissues were immediately collected, blotted, weighed, and frozen on dry ice. Tissue samples were stored frozen (approximately −70° C.) until analysis for radioactivity by liquid scintillation (LS) counting.

[8] = plasma, 5 mg/kg single IV bolus

CC(=O)O[C@@]12CO[C@@H]1C[C@H](O)[C@@]1(C)C(=O)[C@H](O)C3=C(C)[C@@H](OC(=O)[C@H](O)[C@@H](NC(=O)OC(C)(C)C)c4ccccc4)C[C@@](O)([C@@H](OC(=O)c4ccccc4)[C@H]21)C3(C)C [Conventional Docetaxel, docetaxel]
Cmax ([1]; 5 mg/kg single IV bolus, total docetaxel in plasma): 600 ng/mL | AUC(0-inf) [1, 8]: 623 ng·h/mL | clearance [1, 8]: 38.8 mL/min/kg | tmax ([1]; plasma, 5 mg/kg single IV bolus, tmax equals the first sampling time): 5 min | half-life ([1]; plasma, iv, 5 mg/kg): 4.4 h | concentration at 2 h ([2]; 2 h after single IV dose of 50 mg/kg docetaxel): 12900 ± 7900 ng/g | concentration at 12 h ([2]; 12 h after single IV dose of 50 mg/kg docetaxel): 3600 ± 2100 ng/g | effect on tumor volume [3]: appreciable reduction in tumor volume | survival to scheduled necropsy ([4]; 5.7-30 mg/kg single dose): All test subjects survived | piloerection, female rats affected ([4]; female, Sprague-Dawley, rat, in vivo, 10 mg/kg): 1/9 | piloerection, male rats affected ([4]; male, Sprague-Dawley, rat, in vivo, 10 mg/kg): 5/9 | percent of injected dose in the tumor (MX-1 breast tumors): 3% | AUC/D ([5]; 25 mg/m2, F): 109 | Cmax/D ([5]; 25 mg/m2, F): 23.8 | AUC ([5]; 25 mg/m2, F): 2714 ng·h/mL | Cl ([5]; 25 mg/m2, F): 9213 mL/hr/m2 | Vz ([5]; 25 mg/m2, F): 412186 mL/m2 | AUC/D ([5]; 25 mg/m2, M): 102 | Cmax/D ([5]; 25 mg/m2, M): 14.6 | Cl ([5]; 25 mg/m2, M): 9794 mL/hr/m2 | Vz ([5]; 25 mg/m2, M): 253783 mL/m2 | AUC/D ([5]; 50 mg/m2, F): 72 | Cmax/D ([5]; 50 mg/m2, F): 16.7 | AUC ([5]; 50 mg/m2, F): 3599 ng·h/mL | Cl ([5]; 50 mg/m2, F): 13893 mL/hr/m2 | Vz ([5]; 50 mg/m2, F): 788340 mL/m2 | AUC/D ([5]; 50 mg/m2, M): 76.5 | Cmax/D ([5]; 50 mg/m2, M): 24.2 | Cl ([5]; 50 mg/m2, M): 13073 mL/hr/m2 | Vz ([5]; 50 mg/m2, M): 743682 mL/m2 | half-life ([5]; female, monkey, 25 mg/m2, F): 31 h | half-life ([5]; female, monkey, 50 mg/m2, F): 39 h | Cmax ([5]; female, monkey, plasma, 25 mg/m2, F): 596 ng/mL | Cmax ([5]; female, monkey, plasma, 50 mg/m2, F): 835 ng/mL | half-life ([5]; male, monkey, 25 mg/m2, M): 18 h | half-life ([5]; male, monkey, 50 mg/m2, M): 39 h | Cmax ([5]; male, monkey, plasma, 25 mg/m2, M): 364 ng/mL | AUC ([5]; male, monkey, plasma, 25 mg/m2, M, read-out: AUC): 2550 ng·h/mL | Cmax ([5]; male, monkey, plasma, 50 mg/m2, M): 1210 ng/mL | AUC ([5]; male, monkey, plasma, 50 mg/m2, M, read-out: AUC): 3280 ng·h/mL | AUC0-∞ [6]: 910 ng·h/mL | CL [6]: 91.7 mL/min/kg | Cmax [6]: 4,100 ng/mL | t1/2 ([6]; study duration was 6 hours): 0.8^b h | tmax ([6]; tmax equals the first sampling time): 2 min

CC(=O)O[C@@]12CO[C@@H]1C[C@H](O)[C@@]1(C)C(=O)[C@H](O)C3=C(C)[C@@H](OC(=O)[C@H](O)[C@@H](NC(=O)OC(C)(C)C)c4ccccc4)C[C@@](O)([C@@H](OC(=O)c4ccccc4)[C@H]21)C3(C)C [Conventional ^14C-Docetaxel, docetaxel]
Radioactivity in Bone Marrow ([7]; 1 h after IV administration): 97 ± 4.2 nCi/g | Radioactivity in Heart ([7]; 1 h after IV administration): 71 ± 2.5 nCi/g | Radioactivity in Large Intestine ([7]; 1 h after IV administration): 54 ± 3.6 nCi/g | Radioactivity in Liver ([7]; 1 h after IV administration): 78 ± 15 nCi/g | Radioactivity in Lungs ([7]; 1 h after IV administration): 82 ± 9.6 nCi/g | Radioactivity in Plasma ([7]; 1 h after IV administration): 4.9 ± 0.4 nCi/mL | Radioactivity in Small Intestine ([7]; 1 h after IV administration): 517 ± 99 nCi/g | Radioactivity in Spleen ([7]; 1 h after IV administration): 100 ± 9.4 nCi/g | Radioactivity in Bone Marrow ([7]; 3 h after IV administration): 83 ± 1.0 nCi/g | Radioactivity in Heart ([7]; 3 h after IV administration): 39 ± 1.5 nCi/g | Radioactivity in Large Intestine ([7]; 3 h after IV administration): 166 ± 37 nCi/g | Radioactivity in Liver ([7]; 3 h after IV administration): 49 ± 7.3 nCi/g | Radioactivity in Lungs ([7]; 3 h after IV administration): 66 ± 0.7 nCi/g | Radioactivity in Plasma ([7]; 3 h after IV administration): 1.9 ± 0.2 nCi/mL | Radioactivity in Small Intestine ([7]; 3 h after IV administration): 122 ± 43 nCi/g | Radioactivity in Spleen ([7]; 3 h after IV administration): 81 ± 7.5 nCi/g | Radioactivity in Bone Marrow ([7]; 6 h after IV administration): 78 ± 1.9 nCi/g | Radioactivity in Heart ([7]; 6 h after IV administration): 33 ± 1.3 nCi/g | Radioactivity in Large Intestine ([7]; 6 h after IV administration): 185 ± 82 nCi/g | Radioactivity in Liver ([7]; 6 h after IV administration): 49 ± 11 nCi/g | Radioactivity in Lungs ([7]; 6 h after IV administration): 993 ± 1605 nCi/g | Radioactivity in Plasma ([7]; 6 h after IV administration): 1.6 ± 0.5 nCi/mL | Radioactivity in Small Intestine ([7]; 6 h after IV administration): 62 ± 5.2 nCi/g | Radioactivity in Spleen ([7]; 6 h after IV administration): 82 ± 4.6 nCi/g | Radioactivity in Bone Marrow ([7]; 12 h after IV administration): 62 ± 9.4 nCi/g | Radioactivity in Heart ([7]; 12 h after IV administration): 28 ± 1.7 nCi/g | Radioactivity in Large Intestine ([7]; 12 h after IV administration): 83 ± 18 nCi/g | Radioactivity in Liver ([7]; 12 h after IV administration): 55 ± 7.4 nCi/g | Radioactivity in Lungs ([7]; 12 h after IV administration): 1438 ± 1218 nCi/g | Radioactivity in Plasma ([7]; 12 h after IV administration): 0.8 ± 0.2 nCi/mL | Radioactivity in Small Intestine ([7]; 12 h after IV administration): 41 ± 4.9 nCi/g | Radioactivity in Spleen ([7]; 12 h after IV administration): 77 ± 11 nCi/g | Radioactivity in Bone Marrow ([7]; 24 h after IV administration): 41 ± 6.8 nCi/g | Radioactivity in Heart ([7]; 24 h after IV administration): 24 ± 2.6 nCi/g | Radioactivity in Large Intestine ([7]; 24 h after IV administration): 48 ± 34 nCi/g | Radioactivity in Liver ([7]; 24 h after IV administration): 43 ± 4.0 nCi/g | Radioactivity in Lungs ([7]; 24 h after IV administration): 962 ± 99 nCi/g | Radioactivity in Plasma ([7]; 24 h after IV administration): 0.6 ± 0.1 nCi/mL | Radioactivity in Small Intestine ([7]; 24 h after IV administration): 47 ± 19 nCi/g | Radioactivity in Spleen ([7]; 24 h after IV administration): 85 ± 8.6 nCi/g

— patent US9308179B2, “Long circulating nanoparticles for sustained release of therapeutic agents” (BIND Therapeutics, Inc., priority 2008, dated 2016)
